A short description of this series: gradient 5% acetonitrile 3 min, to 50% in 2 min, to 85% in 15 min, held 3 min, 100 µL/min. As to conditions: column: Zorbax Extend-C18 2.1 x 50 mm; eluents: water / acetonitrile, 0.1% formic acid. The gist of the method: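 Using water and acetonitrile that each contained 0.1% formic acid, mixtures of ~100 pure standards were separated at 100 μL/min on a Zorbax Extend-C18 column (2.1 × 50 mm, 1.8 μm). The HPLC fed a quadrupole time-of-flight mass spectrometer working in positive and negative ionization mode, with dead and dwell volumes of 40 μL and 900 μL. Data were acquired over 3 months. Retention time was read from computationally picked adduct peaks after manual inspection of each.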
Compound `CCN1C(=O)COc2ccc(-c3noc(Cc4ccc(OC)cc4)n3)cc21` displayed an RP-LC retention time of 1000 s.

Compound `Cc1ccccc1CCNC(=O)c1cc2n(n1)CC(C)(C(=O)NCc1ccccc1)N(C)C2=O` (stereo not given) yielded an RP-LC retention time of 764 s. The same measure for `COc1ccc(-c2nnc(SCc3cccc(C(F)(F)F)c3)o2)cc1OC`: 992 s. `O=C(O)CNC(=O)C1CCCN(S(=O)(=O)c2ccc(F)cc2)C1` (stereo not given) yielded an RP-LC retention time of 634 s. The compound `COc1ccc(-n2c(=O)n(C)c(=O)c3cc(C(=O)Nc4ccc(C)cc4)cnc32)cc1` registered an RP-LC retention time of 918 s. `CCc1nccn1Cc1nc(-c2ccc(F)cc2)no1`: the RP-LC retention time worked out at 625 s. As for `CCC(C)C(NC(=O)c1ccsc1)C(=O)Nc1nc2ccccc2[nH]1` (stereo not given), the RP-LC retention time stood at 703 s. For the compound `COc1cc(OC)cc(N2C(=O)C3N=NN(Cc4nc(-c5ccc(OC(C)C)cc5)no4)C3C2=O)c1` (stereo not given), the RP-LC retention time turned out to be 1090 s. The same measure for `COc1ccc(Cl)cc1S(=O)(=O)NCCn1nc(C)cc1C`: 719 s; for `Cc1ccc(Cl)cc1N1CCN(c2cc(C(=O)O)c3cc(NC(=O)C(C)(C)C)ccc3n2)CC1`: 830 s; for `Cn1cnc2c(C(=O)NCC3CCCO3)nn(-c3ccccc3)c2c1=O` (stereo not given): 641 s. For `CCN1CCN(CCNC(=O)C2Cn3cccc3C(=O)N2CC(C)C)CC1` (stereo not given), the RP-LC retention time came out at 562 s. `CCn1ccc2sc(C)c(C(=O)NCc3ccccc3OC)c2c1=O` displayed an RP-LC retention time of 796 s.

Turning to `CCN(CC)CCn1c(C)c(C)c2c1ncn1nc(-c3cccnc3)nc21`, the RP-LC retention time amounted to 590 s. In turn, `Cc1cccc(CC(=O)N2C[C@@H]3C[C@H](NS(C)(=O)=O)[C@H]2C3)c1` yielded an RP-LC retention time of 662 s. `CCN(CC)S(=O)(=O)c1ccc2c(c1)N(CC(=O)NCc1ccccc1)C(=O)C1CCCCN21` (stereo not given): the RP-LC retention time is 945 s.

For `CCc1ccccc1NC(=O)c1nnn(-c2ccc3noc(-c4ccccc4)c3c2)c1C`, the RP-LC retention time was 1160 s. The same measure for `O=C(Cc1ccc(NC(=O)C2CCCC2)cc1)NCC(F)(F)F`: 727 s. The same measure for `COCCCNC(=O)c1sc2ncn(CC(=O)N3CC(C)CC(C)C3)c(=O)c2c1C` (stereo not given): 713 s.

Compound `Cc1nc(-c2csc(S(=O)(=O)N3CCC(C(=O)NCc4cccs4)CC3)c2)no1` had an RP-LC retention time of 823 s. The same measure for `COC(=O)C1=CN(C2CC2)c2cc(N3CCN(C)CC3)c(F)cc2S1(=O)=O`: 955 s; for `O=C(CSc1ccc(-n2cccn2)nn1)NCc1cccs1`: 681 s; for `COc1ccc2c(c1)c(CN1CC[C@H](CO)[C@H](N(C)C)C1)cn2C(C)C`: 591 s. `CN(C)c1ncncc1N1CCC(C(=O)NC2CC2)CC1` displayed an RP-LC retention time of 554 s. The compound `Cc1ccc(CN(CC(=O)N2CCNCC2)C(=O)c2sccc2C)cc1` yielded an RP-LC retention time of 720 s. Take `Cc1ccc(NC(=O)N2[C@H]3CC[C@@H]2c2cncnc2C3)cc1F`: the RP-LC retention time turned out to be 738 s. `CCC(=O)N1CCCc2ccc(NC(=O)c3ccco3)cc21` yielded an RP-LC retention time of 729 s. Compound `COc1ccc(N2Cc3cccc(C(=O)O)c3C2=O)cc1` displayed an RP-LC retention time of 816 s.

Compound `C=C(C)Cn1c(C2CC(=O)N(c3ccccc3Br)C2)nc2ccccc21` (stereo not given) yielded an RP-LC retention time of 708 s.

Compound `CCCC(=O)N1CC(=O)Nc2ccc(Br)cc2C1c1ccccc1` (stereo not given) displayed an RP-LC retention time of 892 s. The result for `CCN1CCCn2cc(S(=O)(=O)N3CCN(c4ccc(Cl)cc4)CC3)cc2C1=O` reads 894 s; that for `Cn1c(N2CCC(C(=O)N3CCC(Cc4ccccc4)CC3)CC2)cc(=O)n(C)c1=O`, 824 s; that for `COCCNC(=O)CCCN1C(=O)c2ccccc2Sc2ncccc21`, 634 s. Consider `CCn1ccc2cc(S(=O)(=O)N3CCCC(C(=O)NC4CCCCC4)C3)ccc21` (stereo not given), for which the RP-LC retention time came out at 1010 s. Turning to `CC(C)CN1CCn2cc(S(=O)(=O)Nc3ccc(Cl)cc3F)cc2C1=O`, the RP-LC retention time was determined as 858 s.

Consider `N#CC1=C(N)Oc2c(ccc3cccnc23)C1c1ccccc1` (stereo not given), for which the RP-LC retention time turned out to be 768 s. Compound `Cn1c(C2CCN(S(=O)(=O)c3ccc(Cl)cc3)C2)nc2cccnc21` (stereo not given) showed an RP-LC retention time of 760 s. On to `CC1CCN(CCCNC(=O)C2CCc3sc(C(=O)N4CCOCC4)cc3C2)CC1` (stereo not given), for which the RP-LC retention time turned out to be 596 s.

For the compound `COc1ccc(NC(=O)N2C[C@@H](F)C[C@H]2C(=O)N2CCCCC2)c(OC)c1`, the RP-LC retention time came to 687 s. In the case of `COc1ccc(CNC(=O)Cn2nc3cc(C)nc(-c4ccccc4)n3c2=O)cc1`, the RP-LC retention time was 752 s.

Regarding `CCCCN1CCN(C(=O)C2CCN(c3nnc(-c4ccc(C)cc4)o3)CC2)CC1`, the RP-LC retention time turned out to be 632 s.

For the compound `CCOc1ccccc1NC(=O)N1CCc2nc(-c3ccccc3)ncc2C1`, the RP-LC retention time came out at 1010 s. `CNC(=O)[C@@H]1C[C@H](Oc2ccccc2)CN1C(=O)c1n[nH]c2ccccc12`: the RP-LC retention time worked out at 706 s.

`COC(=O)c1ncn2c1C(=O)N(Cc1cccc(F)c1)C(C)(C(=O)NCc1ccc(C)cc1)C2` (stereo not given) came in with an RP-LC retention time of 760 s. In the case of `O=C(c1ccc(Cl)cc1)N1CCN(c2nc(CN3CCCCC3)cs2)CC1`, the RP-LC retention time came out at 808 s.

Compound `CCCCC(C)C(=O)NC1CCN(C2=NS(=O)(=O)C(c3ccc(C)cc3)=C2C)CC1` (stereo not given) displayed an RP-LC retention time of 935 s. On to `O=C(Cn1cccc(-c2nc(-c3ccc(Br)cc3)no2)c1=O)NCc1ccccc1`, for which the RP-LC retention time was 939 s. In turn, `CN1CCN(C2=Cc3ccccc3Oc3ccc(Cl)cc32)CC1` gave an RP-LC retention time of 818 s. The result for `COc1ccc(-c2noc(Cc3nc(-c4cc(C)c(C)cc4C)cs3)n2)cc1` reads 1340 s; that for `O=C(Oc1ccc(NC2=NS(=O)(=O)c3ccccc32)cc1)c1ccccc1`, 935 s; that for `c1ccc(-c2noc(NCCc3ccsc3)n2)cc1`, 969 s. Compound `CCN(CC)S(=O)(=O)c1ccc(Cl)c(-c2nnc(-c3ccccc3)o2)c1` gave an RP-LC retention time of 1120 s. Compound `COC(=O)c1cccc(NC(=O)c2c[nH]c3ncccc23)c1` gave an RP-LC retention time of 708 s. As for `CC(C)N1CCN(C(=O)c2nc(N3CCSCC3)c3cnn(C)c3n2)CC1`, the RP-LC retention time came out at 577 s. `Nc1ncnc(N2CCN(c3ccc(Cl)c(Cl)c3)CC2)c1[N+](=O)[O-]` gave an RP-LC retention time of 909 s. In turn, `Cc1ccc(NC(=O)C2CCN(C(=O)c3ncn4c3COC(c3ccc(F)cc3)C4)CC2)cc1Cl` (stereo not given) gave an RP-LC retention time of 901 s.

`CN(C)C(=O)c1ccc2c(c1)N(CC(=O)NCc1ccc(Cl)cc1)C(=O)CO2` yielded an RP-LC retention time of 707 s.

The compound `O=C(CN1CCN(C(=O)Nc2ccc(Cl)cc2)CC1=O)N1CCN(c2ccccn2)CC1` returned an RP-LC retention time of 592 s. The same measure for `O=C(Nc1nnc(C2=COCCO2)o1)c1ccco1`: 559 s. Take `O=C(CC1CCN(C(=O)c2ccc3oc(C4CC4)nc3c2)CC1)NCc1ccc2c(c1)OCO2`: the RP-LC retention time was determined as 733 s.

`O=C(NCc1ccccc1)C1=Cc2ccccc2OC=C1` came in with an RP-LC retention time of 933 s. Turning to `COC(=O)Cn1c(-c2ccc(C)cc2)cnc1SCC(=O)Nc1nnc(C)s1`, the RP-LC retention time came out at 680 s.

The compound `Cc1cc(C)n(-c2nc(C)c(C(=O)Nc3ccc(F)cc3)s2)n1` gave an RP-LC retention time of 1060 s. For `COc1ccc(NC(=O)Cn2c(C)cc(-c3nnc(-c4ccco4)o3)c2C)cc1Cl`, the RP-LC retention time is 903 s. `Cc1cccc(-c2noc(Cc3nc(-c4ccccc4)cs3)n2)c1`: the RP-LC retention time worked out at 1260 s. The same measure for `CC1CCc2ccccc2N1C(=O)c1cccs1` (stereo not given): 913 s. The result for `CCc1c(C2CCN(C(=O)c3cc4ccccc4[nH]3)CC2)noc1N` reads 774 s. The result for `CC(C)NC(=O)N1CCC2(CC1)NCCc1c2[nH]c2ccccc12` reads 618 s.

For the compound `Cc1nnc2ccc(-c3noc(-c4ccc5c(c4)OCO5)n3)cn12`, the RP-LC retention time worked out at 871 s.

As to `CCn1c(=O)n(CC(=O)NC(C)C)c(=O)c2cnc(-c3ccccc3)nc21`, the RP-LC retention time came out at 863 s. The same measure for `CCC(C)NC(=O)C1CCN(c2nc3cccnc3s2)CC1` (stereo not given): 664 s. In turn, `Cc1sc2ccn(Cc3ccc(F)cc3)c(=O)c2c1C(=O)NCC1CC1` returned an RP-LC retention time of 858 s. For `CN(C)CCn1c2c(c(SCC(=O)Nc3ccc(Br)cc3)nc1=O)CCC2`, the RP-LC retention time came to 655 s. With `CN1CCN(CCCNC(=O)c2cc(-c3cccnc3)nc3ccc(Br)cc23)CC1`, the RP-LC retention time was 542 s. In turn, `CC1CCN(CCNC(=O)c2nc(CCS(=O)(=O)c3ccc(F)cc3)no2)CC1` had an RP-LC retention time of 620 s. On to `COc1cc(NC(=O)N2CCC(CN3CCc4ccccc4C3)CC2)cc(OC)c1OC`, for which the RP-LC retention time was determined as 612 s. With `Cc1cccc(S(=O)(=O)N2CC3CN(C(=O)C4CCCCC4)CC(C2)O3)c1`, the RP-LC retention time stood at 865 s.

Compound `COc1cccc(N2CCN(C(=O)CN3CCN(Cc4ccccc4)C(=O)C3=O)CC2)c1` came in with an RP-LC retention time of 726 s. The result for `Clc1ccc(-c2nc(-c3ccc(-n4ccnc4)nc3)no2)cc1` reads 797 s. Compound `COC(=O)c1ncn2c1C(=O)N(Cc1ccc(C)cc1)C(C)(C(=O)NC1CCCC1)C2` (stereo not given) showed an RP-LC retention time of 766 s.

The record behind these values is the METLIN SMRT retention time set (Domingo-Almenara et al. 2019).
